We go through twelve compounds from patent US20240398828A1, “HETERO-ATOM CONTAINING COMPOUNDS AND USES THEREOF” (Kumquat Biosciences Inc., priority 2021, published 2024).

One assay has as its target T1, PTPN1 (i.e., PTP1B) (Homo sapiens, UniProt P18031).
T1 sequence (P18031 1-435): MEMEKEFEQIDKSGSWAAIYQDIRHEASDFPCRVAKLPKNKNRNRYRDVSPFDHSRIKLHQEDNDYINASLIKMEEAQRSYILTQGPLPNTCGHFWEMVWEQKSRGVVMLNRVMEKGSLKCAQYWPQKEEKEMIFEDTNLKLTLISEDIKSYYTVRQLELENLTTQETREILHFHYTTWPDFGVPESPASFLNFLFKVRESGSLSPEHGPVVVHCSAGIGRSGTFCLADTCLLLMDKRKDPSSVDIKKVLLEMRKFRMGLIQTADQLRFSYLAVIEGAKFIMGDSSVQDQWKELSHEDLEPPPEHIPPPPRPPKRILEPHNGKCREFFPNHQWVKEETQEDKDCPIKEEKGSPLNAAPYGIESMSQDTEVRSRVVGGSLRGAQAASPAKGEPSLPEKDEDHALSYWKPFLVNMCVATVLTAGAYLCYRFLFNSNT
Briefly: Phosphatase activity assay (DiFMUP substrate), PTP1B. As to conditions: compounds binned ≤1 uM or >1 uM. Format: biochemical. As to the method: (§1) The selectivity and potency of a small molecule PTPN2 inhibitor as provided herein against one or more protein tyrosine phosphatase (PTP) enzymes, and specifically against PTPN2, is assessed in various ways. The one or more PTP enzymes comprise Mycobacterium protein tyrosine phosphatase A (mPTPA), Mycobacterium protein tyrosine phosphatase B (mPTPB), PTPN1 (i.e., PTP1B), PTPN2 (i.e., TC-PTP), PTPN22 (i.e., LYP), SHP-1, SHP-2, FAP-1, Meg2, HePTP, Laforin, VHX, VHR, LMWPTP, Cdc14A, LAR, CD45, PTPRG, a fragment thereof, a variant thereof, and a combination thereof. Selectivity and potency of a small molecule PTPN2 inhibitor is evaluated using a PTP activity inhibition assay. The assay is performed using a buffer comprising 50 mM HEPES buffer pH 7.5, 150 mM NaCl, 0.5 mM EDTA, 1 mM DTT, 0.001% Tween-20.
(§2) The assay is performed using a phosphated substrate, e.g., 10 mM 6,8-Difluoro-4-Methylumbelliferyl Phosphate (DIFMUP) that is stored at −20° C. Alternatively or in addition to, the assay is performed using other phosphated substrate (e.g., fluorescein diphosphate). Each PTP enzyme is diluted in the assay buffer
(§3) The assay can be carried out at room temperature in multiplate format, e.g., using 384 well plates. A small molecule PTPN2 inhibitor dissolved in DMSO at one of 10 concentrations from a serial dilution or DMSO alone for control is added to each well. A mixture of the assay buffer comprising PTP enzyme (e.g., 0.025 ng/ul PTPN2) is added to each well and mixed for approximately 2 minutes. The reaction is initiated by adding DiFMUP diluted in the assay buffer to a final concentration of approximately 45 μM DiFMUP in PTPN2 assay. For each PTP enzyme, DiFMUP is added at the Km (Michaelis constant) of the enzyme that had been independently determined. The phosphatase activity of the PTP enzyme is assessed by monitoring appearance of a fluorescent product (6,8-difluoro-7-hydroxyl-4-coumarin (DiFMU) from DiFMUP) continuously for about 15 to 30 minutes, using the INFINITE M1000Pro plate reader (Tecan) with excitation at 360 nm and emission at 450 nm (cutoff filter at 435 nm) for DiFMU. Each assay is performed at least in duplicate. The rate (e.g., the initial rate) of DiFMU formation is plotted against the concentration of the small molecule PTPN2 inhibitor, and the data is fitted (e.g., using a 4-parameter equation) to determine the inflection point of the fit as the IC50 of the small molecule PTPN2 inhibitor for a specific enzyme. Utilizing this assay, the ability of the compounds in Table 2 to inhibit PTPN2 and PTP1B has been assessed. Table 3 summarizes the IC50 values.

In another assay the target is T2, PTPN2 (i.e., TC-PTP) (Homo sapiens, UniProt P17706).
T2 sequence (P17706 1-415): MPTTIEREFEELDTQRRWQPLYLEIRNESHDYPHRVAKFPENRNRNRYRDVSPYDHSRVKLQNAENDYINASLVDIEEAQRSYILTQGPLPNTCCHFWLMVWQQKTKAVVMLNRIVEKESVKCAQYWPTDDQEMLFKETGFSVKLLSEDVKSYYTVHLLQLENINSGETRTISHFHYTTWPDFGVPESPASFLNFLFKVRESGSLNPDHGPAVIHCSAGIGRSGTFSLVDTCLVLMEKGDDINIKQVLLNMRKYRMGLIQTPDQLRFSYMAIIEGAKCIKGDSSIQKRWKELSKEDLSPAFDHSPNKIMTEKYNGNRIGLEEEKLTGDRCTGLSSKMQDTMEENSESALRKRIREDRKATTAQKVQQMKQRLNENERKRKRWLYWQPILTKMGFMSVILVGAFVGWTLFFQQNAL
As to the kind of experiment: Phosphatase activity assay (DiFMUP substrate), PTPN2. Format: biochemical. As to conditions: compounds binned ≤1 uM or >1 uM. As to the method:
as §1, §2, §3

Some results are limits rather than exact numbers.

One may read the IC50 as the point on the concentration scale where inhibition reaches its midpoint. Take `Cc1ncc(-c2ccc(O)c(N3CC(=O)NS3(=O)=O)c2F)o1` [Compound 101, 5-(2-fluoro-6-hydroxy-3-(2-methyloxazol-5-yl)phenyl)-1,2,5-thiadiazolidin-3-one 1,1-dioxide]: the IC50 was ≤ 1 µM on PTPN1 (i.e., PTP1B) and ≤ 1 µM at PTPN2 (i.e., TC-PTP). As for `O=C1CN(c2c(O)ccc(-c3cnn(-c4cccnc4)c3)c2F)S(=O)(=O)N1` [Compound 102, 5-(2-fluoro-6-hydroxy-3-(1-(pyridin-3-yl)-1H-pyrazol-4-yl)phenyl)-1,2,5-thiadiazolidin-3-one 1,1-dioxide], the IC50 on PTPN1 (i.e., PTP1B) was ≤ 1 µM; at PTPN2 (i.e., TC-PTP) it was ≤ 1 µM. `Cc1csc(-c2ccc(O)c(N3CC(=O)NS3(=O)=O)c2F)c1` [Compound 103, 5-(2-fluoro-6-hydroxy-3-(4-methylthiophen-2-yl)phenyl)-1,2,5-thiadiazolidin-3-one 1,1-dioxide]: the IC50 on PTPN1 (i.e., PTP1B) was ≤ 1 µM; on PTPN2 (i.e., TC-PTP), ≤ 1 µM. For the compound `CC(C)CCNC1CCCN(c2cc(O)c(N3CC(=O)NS3(=O)=O)c(F)c2)C1` (centres unmarked) [Compound 104, 5-(2-fluoro-6-hydroxy-4-(3-(isopentylamino)piperidin-1-yl)phenyl)-1,2,5-thiadiazolidin-3-one 1,1-dioxide], the half-inhibitory concentration (IC50) was ≤ 1 µM on PTPN1 (i.e., PTP1B) and ≤ 1 µM at PTPN2 (i.e., TC-PTP).

Regarding `COc1ccc(-c2cnc(O)nc2)c(F)c1N1CC(=O)NS1(=O)=O` [Compound 105, 5-(2-fluoro-3-(2-hydroxypyrimidin-5-yl)-6-methoxyphenyl)-1,2,5-thiadiazolidin-3-one 1,1-dioxide], the concentration for half-maximal inhibition (IC50) was > 1 µM at PTPN1 (i.e., PTP1B) and > 1 µM on PTPN2 (i.e., TC-PTP).

For the compound `Cn1cc(-c2ccc(O)c(N3CC(=O)NS3(=O)=O)c2F)ccc1=O` [Compound 106, 5-(2-fluoro-6-hydroxy-3-(1-methyl-6-oxo-1,6-dihydropyridin-3-yl)phenyl)-1,2,5-thiadiazolidin-3-one 1,1-dioxide], the IC50 at PTPN1 (i.e., PTP1B) was ≤ 1 µM; at PTPN2 (i.e., TC-PTP) it was ≤ 1 µM. For `COc1cc(-c2ccc(O)c(N3CC(=O)NS3(=O)=O)c2F)ccn1` [Compound 107, 5-(2-fluoro-6-hydroxy-3-(2-methoxypyridin-4-yl)phenyl)-1,2,5-thiadiazolidin-3-one 1,1-dioxide], the 50% inhibitory concentration (IC50) on PTPN1 (i.e., PTP1B) was ≤ 1 µM; at PTPN2 (i.e., TC-PTP), ≤ 1 µM. In the case of `CC(C)n1cc(-c2ccc(O)c(N3CC(=O)NS3(=O)=O)c2F)cn1` [Compound 108, 5-(2-fluoro-6-hydroxy-3-(1-isopropyl-1H-pyrazol-4-yl)phenyl)-1,2,5-thiadiazolidin-3-one 1,1-dioxide], the IC50 is ≤ 1 µM on PTPN1 (i.e., PTP1B) and ≤ 1 µM on PTPN2 (i.e., TC-PTP). As to `CN1CCc2cc(-c3ccc(O)c(N4CC(=O)NS4(=O)=O)c3F)ccc2C1` [Compound 109, 5-(2-fluoro-6-hydroxy-3-(2-methyl-1,2,3,4-tetrahydroisoquinolin-6-yl)phenyl)-1,2,5-thiadiazolidin-3-one 1,1-dioxide], the IC50 at PTPN1 (i.e., PTP1B) is ≤ 1 µM; at PTPN2 (i.e., TC-PTP), ≤ 1 µM. Take `Cn1cc(-c2ccc(O)c(N3CC(=O)NS3(=O)=O)c2F)c(F)n1` [Compound 110, 5-(2-fluoro-3-(3-fluoro-1-methyl-1H-pyrazol-4-yl)-6-hydroxyphenyl)-1,2,5-thiadiazolidin-3-one 1,1-dioxide]: the concentration for half-maximal inhibition (IC50) was ≤ 1 µM at PTPN1 (i.e., PTP1B) and ≤ 1 µM at PTPN2 (i.e., TC-PTP). As for `O=C1CN(c2c(O)ccc(-c3cnn(Cc4cncc(F)c4)c3)c2F)S(=O)(=O)N1` [Compound 111, 5-(2-fluoro-3-(1-((5-fluoropyridin-3-yl)methyl)-1H-pyrazol-4-yl)-6-hydroxyphenyl)-1,2,5-thiadiazolidin-3-one 1,1-dioxide], the IC50 on PTPN1 (i.e., PTP1B) is ≤ 1 µM; at PTPN2 (i.e., TC-PTP) it was ≤ 1 µM. `CC(C1CCCCC1)n1cnc(-c2ccc(O)c(N3CC(=O)NS3(=O)=O)c2F)c1` (centres unmarked) [Compound 413, 5-(3-(1-(1-cyclohexylethyl)-1H-imidazol-4-yl)-2-fluoro-6-hydroxyphenyl)-1,2,5-thiadiazolidin-3-one 1,1-dioxide]: the IC50 at PTPN2 (i.e., TC-PTP) was > 1 µM.
